Series [1] concerns rat. Conditions: Prenatal developmental toxicity study, fischer, Oral, Gavage/Intubation, dose end: 15 GD.
Series [2] deals with rat. Conditions: Multigenerational reproductive toxicity study, other, Oral, Feed, dose end: 2 generation.
Series [3] deals with rabbit. The settings on record: Prenatal developmental toxicity study, new zealand white, Oral, Gavage/Intubation, dose end: 19 GD.
The subject of series [4] is rat. Conditions: Peri- and post-natal toxicity study (Segment III), sprague dawley, Oral, Gavage/Intubation, dose end: 40 PND.
Series [5] deals with rat. The settings on record: Multigenerational reproductive toxicity study, sprague dawley, Oral, Feed, dose end: 2 generation.
Series [6] deals with rat. The settings on record: Multigenerational reproductive toxicity study, sprague dawley, Oral, Feed, dose end: 2 generation. This is another data set of the same source.
The test system of series [7] is rabbit. The settings on record: Prenatal developmental toxicity study, dutch, Oral, Gavage/Intubation, dose end: 19 GD.
For series [8], the system named is rat. The settings on record: Multigenerational reproductive toxicity study, sprague dawley, Oral, Gavage/Intubation, dose end: 2 generation.
The test system of series [9] is mouse. The settings on record: Multigenerational reproductive toxicity study, cd1, Oral, Feed, dose end: 1 generation.
Series [10] deals with rat. Conditions: Peri- and post-natal toxicity study (Segment III), sprague dawley, Oral, Gavage/Intubation, dose end: 43 PND.
[11] abbreviates: group: developmental, systemic / in life observation / body weight / fetal weight.
[12] abbreviates: group: maternal, systemic / in life observation / body weight / body weight + systemic / in life observation / body weight / body weight gain + systemic / in….
The mark [13] stands for this setting: group: maternal, systemic / in life observation / body weight / body weight gain + systemic / in life observation / food consumption / food consumption.
Setting [14] is: group: offspring, developmental / offspring survival late / [other] / [other] + systemic / in life observation / body weight / offspring (pup) weight.
[15] abbreviates: group: parental, systemic / in life observation / body weight / body weight + systemic / in life observation / food consumption / food consumption.
Where [16] appears, read: group: reproductive, reproductive / offspring survival early / litter size / litter size + reproductive / offspring survival early / live fetuses / live fetuses.
Where [17] appears, read: group: developmental, developmental / developmental malformation / bone / misshapen + developmental / developmental malformation / gallbladder / hypoplasia + ….
[18] abbreviates: group: maternal, reproductive / reproductive performance / estrous cycle / corpora lutea.
[19] abbreviates: group: parental, systemic / pathology microscopic / ovary / follicle count + systemic / pathology microscopic / uterus / thickened.
Setting [20] is: group: offspring, systemic / in life observation / body weight / offspring (pup) weight.
The mark [21] stands for this setting: group: parental, systemic / organ weight / ovary / nos.
Setting [22] is: group: reproductive, reproductive / reproductive performance / gestational length / gestational length.
[23] abbreviates: group: parental, systemic / in life observation / body weight / body weight + systemic / organ weight / ovary / nos.
Where [24] appears, read: group: parental, systemic / in life observation / body weight / body weight + systemic / organ weight / ovary / nos + systemic / pathology microscopic / ….
Setting [25] is: group: reproductive, reproductive / reproductive performance / fertility / fertility.
The mark [26] stands for this setting: group: reproductive, reproductive / reproductive performance / fertility / fertility + reproductive / reproductive performance / estrous cycle / corpora lutea.
The mark [27] stands for this setting: group: cholinesterase, cholinesterase / cholinesterase / cholinesterase / brain cholinesterase (che) + cholinesterase / cholinesterase / cholinesterase / ….
The mark [28] stands for this setting: group: developmental, developmental / developmental malformation / bone / incomplete ossification.
Where [29] appears, read: group: maternal, reproductive / reproductive performance / resorptions / resorptions + systemic / in life observation / clinical signs / abnormal feces.
Setting [30] is: group: offspring, systemic / organ weight / thymus / absolute.
The mark [31] stands for this setting: group: offspring, systemic / organ weight / thymus / absolute + systemic / organ weight / thymus / relative to body weight.
Setting [32] is: group: parental, systemic / organ weight / liver / absolute + systemic / organ weight / liver / relative to body weight.
Setting [33] is: group: parental, systemic / organ weight / liver / absolute + systemic / organ weight / liver / relative to body weight + systemic / in life observation / ….
[34] abbreviates: group: parental, systemic / in life observation / body weight / body weight + systemic / organ weight / kidney / nos + systemic / organ weight / liver / nos….
Setting [35] is: group: reproductive, reproductive / reproductive performance / fertility / fertility + reproductive / offspring survival early / live fetuses / live fetuses.
[36] abbreviates: group: reproductive, reproductive / reproductive performance / fertility / fertility + reproductive / offspring survival early / live fetuses / live fetuses + ….
Setting [37] is: group: developmental, developmental / developmental landmark / vaginal opening / vaginal opening.
The mark [38] stands for this setting: group: maternal, reproductive / reproductive performance / estrous cycle / [other].
Where [39] appears, read: group: maternal, reproductive / reproductive performance / estrous cycle / [other] + reproductive / reproductive performance / estrous cycle / abnormal + ….
[40] abbreviates: group: parental, systemic / organ weight / liver / absolute + systemic / organ weight / ovary / absolute + systemic / organ weight / pituitary gland / ….

As for `Cl/C=C\C[N+]12CN3CN(CN(C3)C1)C2.[Cl-]` [Chloroallyl methenamine chloride], the LEL in series [1] (setting [11]) was 75 mg/kg/day; in series [1] (setting [13]), 25 mg/kg/day; in series [2] (setting [14]), 14.8 mg/kg/day; in series [2] (setting [15]) it was 4.57 mg/kg/day; in [2] (setting [16]), 14.8 mg/kg/day. Moreover, the lowest observed adverse effect level (LOAEL) in series [1] (setting [11]) was more than 75 mg/kg/day; in [1] (setting [12]) it was 75 mg/kg/day; in series [2] (setting [14]) it was more than 14.8 mg/kg/day; in series [2] (setting [15]) it was more than 13.4 mg/kg/day; in series [2] (setting [16]), more than 14.8 mg/kg/day. The NEL in series [1] (setting [11]) is 25 mg/kg/day; in series [1] (setting [13]), less than 25 mg/kg/day; in series [2] (setting [14]), 5 mg/kg/day; in [2] (setting [15]), 1.53 mg/kg/day; in [2] (group: reproductive, reproductive / offspring survival early / litter size / litter size), 5 mg/kg/day. The no observed adverse effect level (NOAEL) in series [1] (setting [11]) is not below 75 mg/kg/day; in [1] (setting [12]), 25 mg/kg/day; in series [2] (setting [14]) it was not below 14.8 mg/kg/day; in [2] (setting [15]), not below 13.4 mg/kg/day; in series [2] (setting [16]) it was not below 14.8 mg/kg/day.
For the compound `CC1=C(C(=O)Nc2ccccc2)S(=O)(=O)CCO1` [Oxycarboxin], in series [3] (setting [17]), the LEL worked out at 750 mg/kg/day, the LOAEL was 750 mg/kg/day, the NEL was 150 mg/kg/day and the NOAEL amounted to 150 mg/kg/day. Moreover, in series [3] (setting [12]), the LEL is 750 mg/kg/day, the lowest-observed-adverse-effect level (LOAEL) is 750 mg/kg/day, the NEL is 150 mg/kg/day and the NOAEL is 150 mg/kg/day.
For `CC(C)COC(=O)c1ccc(O)cc1` [Isobutylparaben], in series [4] (setting [18]), the LEL amounted to 62.5 mg/kg/day, the LOAEL was more than 1000 mg/kg/day, the NEL was less than 62.5 mg/kg/day and the no-observed-adverse-effect level (NOAEL) is not below 1000 mg/kg/day. Further, in series [4] (setting [19]), the LEL came out at 62.5 mg/kg/day, the lowest-observed-adverse-effect level (LOAEL) is more than 1000 mg/kg/day, the NEL was less than 62.5 mg/kg/day and the no-observed-adverse-effect level (NOAEL) is not below 1000 mg/kg/day.
`CC1(C)CCC(Cc2ccc(Cl)cc2)C1(O)Cn1cncn1` (stereo not given) [Metconazole]: in series [5] (setting [20]), the LEL was 32 mg/kg/day, the lowest-observed-adverse-effect level (LOAEL) came out at 32 mg/kg/day, the NEL was determined as 8 mg/kg/day and the no-observed-adverse-effect level (NOAEL) turned out to be 8 mg/kg/day. Besides, in series [5] (setting [21]), the LEL was 32 mg/kg/day, the LOAEL is 32 mg/kg/day, the NEL was 8 mg/kg/day and the NOAEL was 8 mg/kg/day. In series [5] (setting [22]), the LEL stood at 32 mg/kg/day, the lowest observed adverse effect level (LOAEL) is more than 32 mg/kg/day, the NEL amounted to 8 mg/kg/day and the no observed adverse effect level (NOAEL) is not below 32 mg/kg/day.
Consider `CCS(=O)CCSP(=O)(OC)OC` (stereo not given) [Oxydemeton-methyl], for which the LEL in [6] (setting [14]) stood at 2.1 mg/kg/day; in series [6] (setting [24]) it was 2.1 mg/kg/day; in [6] (setting [26]), 2.1 mg/kg/day; in series [7] (setting [27]) it was 1.6 mg/kg/day; in series [7] (setting [28]), 0.1 mg/kg/day; in [7] (group: maternal, systemic / in life observation / clinical signs / abnormal feces) it was 0.4 mg/kg/day. In addition, the LOAEL in series [6] (setting [14]) was 2.1 mg/kg/day; in series [6] (setting [24]) it was 2.1 mg/kg/day; in series [6] (setting [26]), 2.1 mg/kg/day; in series [7] (setting [27]) it was 1.6 mg/kg/day; in series [7] (setting [28]), 0.1 mg/kg/day; in [7] (setting [29]), more than 1.6 mg/kg/day. For the same compound, the NEL in series [6] (setting [14]) was 0.38 mg/kg/day; in series [6] (setting [23]), 0.38 mg/kg/day; in series [6] (setting [25]), 0.38 mg/kg/day; in series [7] (setting [27]), 0.4 mg/kg/day; in series [7] (setting [28]), less than 0.1 mg/kg/day; in series [7] (setting [29]), 0.1 mg/kg/day. Moreover, the no observed adverse effect level (NOAEL) in series [6] (setting [14]) is 0.38 mg/kg/day; in series [6] (setting [23]), 0.38 mg/kg/day; in series [6] (setting [25]) it was 0.38 mg/kg/day; in [7] (setting [27]), 0.4 mg/kg/day; in series [7] (setting [28]) it was less than 0.1 mg/kg/day; in [7] (setting [29]), not below 1.6 mg/kg/day.
With `CCCCc1ccccc1` [Butylbenzene], the NEL in [8] (setting [30]) is 100 mg/kg/day; in [8] (setting [32]) it was less than 30 mg/kg/day. Further, the NOAEL in series [8] (setting [30]) worked out at 100 mg/kg/day; in [8] (setting [33]) it was 30 mg/kg/day. The results for the LEL in [8] (setting [31]) and in series [8] (setting [32]) were 300 mg/kg/day and 30 mg/kg/day, respectively. Besides, the lowest-observed-adverse-effect level (LOAEL) in series [8] (setting [31]) came out at 300 mg/kg/day; in [8] (setting [33]) it was 100 mg/kg/day.
For the compound `CCCCCOC(=O)c1ccccc1C(=O)OCCCCC` [Dipentyl phthalate], the NEL in series [9] (group: parental, systemic / in life observation / body weight / body weight + systemic / organ weight / kidney / nos + systemic / organ weight / liver / nos) came to 2.16 mg/kg/day. In addition, in [9] (setting [34]), the LEL is 4.79 mg/kg/day, the lowest-observed-adverse-effect level (LOAEL) was more than 4.79 mg/kg/day and the no-observed-adverse-effect level (NOAEL) is not below 4.79 mg/kg/day. Also, in series [9] (setting [35]), the LEL stood at 0.76 mg/kg/day and the NEL is less than 0.76 mg/kg/day. In series [9] (setting [36]), the lowest-observed-adverse-effect level (LOAEL) is more than 4.79 mg/kg/day and the no observed adverse effect level (NOAEL) is not below 4.79 mg/kg/day.
In series [10] (setting [37]), `COc1ccc(C(c2ccc(OC)cc2)C(Cl)(Cl)Cl)cc1` [Methoxychlor] registered an LEL of 12.5 mg/kg/day, an LOAEL of more than 50 mg/kg/day, an NEL of less than 12.5 mg/kg/day and a no-observed-adverse-effect level (NOAEL) not below 50 mg/kg/day. In series [10] (setting [38]), this compound had an LEL of 12.5 mg/kg/day and an NEL of less than 12.5 mg/kg/day. Further, in series [10] (setting [39]), the lowest observed adverse effect level (LOAEL) was more than 50 mg/kg/day and the NOAEL is not below 50 mg/kg/day. In series [10] (setting [40]), the LEL was determined as 50 mg/kg/day, the LOAEL was more than 50 mg/kg/day, the NEL stood at 25 mg/kg/day and the no observed adverse effect level (NOAEL) was not below 50 mg/kg/day.

The values above are taken from EPA's ToxRefDB 2.
